Data from publication PMC6272674, “Selected Compounds Structurally Related to Acyclic Sesquiterpenoids and Their Antibacterial and Cytotoxic Activity” (Molecules, 2015).
pIC50: −log10 of the molar value. Values after ≈ are worked out from the molar mass of the structure shown.

Experiments:
[1] = test system: Staphylococcus aureus ATCC 43300; experiment: Micro-dilution broth MIC, Staphylococcus aureus; type: cell-based; details: ATCC43300, 24 h, 37 °C, read-out: Minimum Inhibitory Concentrations MIC
Procedure: (§1) The standard strains, Gram-positive: Staphylococcus aureus ATCC […], Enterococcus faecalis Van B ATCC 51299 and Enterococcus faecium VA sensitive ATCC 35667, and Gram-negative: Escherichia coli ATCC 25922, Klebsiella pneumoniae ATCC 700603 and Acinetobacter baumannii ATCC 19606, came from a collection of the Environmental Biology Department, Medical University of Łódź. The standard strains were cultivated in Columbia Agar Medium and incubated at 37 °C for 24 h in aerobic conditions.
(§2) The antibacterial activity of the racemates and E/Z-mixtures was investigated using the micro‑dilution broth method. The compounds were diluted in ethanol. This stock solution was mixed with 100 µL of Mueller-Hinton broth to obtain concentrations from 10 µg/mL to 80 µg/mL. The mixtures were then transferred to 96-well microtiter plates. The microbial suspension was standardised to a cell density of 1.5 × 10^8 CFU, which was equal to an optical density of 0.5 on the Mc Farland scale by a bio-Merieux densitometer; one well was filled with broth only to act as a control for strain growth.

[2] = test system: Enterococcus faecalis ATCC 51299; experiment: Micro-dilution broth MIC, Enterococcus faecalis; type: cell-based; details: ATCC51299, 24 h, 37 °C, read-out: Minimum Inhibitory Concentrations MIC
Procedure: as §1, §2

[3] = test system: Enterococcus faecium ATCC 35667; experiment: Micro-dilution broth MIC, Enterococcus faecium; type: cell-based; details: ATCC35667, 24 h, 37 °C, read-out: Minimum Inhibitory Concentrations MIC
Procedure: as §1, §2

[4] = test system: Escherichia coli ATCC 25922; experiment: Micro-dilution broth MIC, Escherichia coli; type: cell-based; details: ATCC25922, 24 h, 37 °C, read-out: Minimum Inhibitory Concentrations MIC
Procedure: as §1, §2

[5] = test system: Klebsiella pneumoniae ATCC 700603; experiment: Micro-dilution broth MIC, Klebsiella pneumoniae; type: cell-based; details: ATCC700603, 24 h, 37 °C, read-out: Minimum Inhibitory Concentrations MIC
Procedure: as §1, §2

[6] = test system: Acinetobacter baumannii ATCC 19606; experiment: Micro-dilution broth MIC, Acinetobacter baumannii; type: cell-based; details: ATCC19606, 24 h, 37 °C, read-out: Minimum Inhibitory Concentrations MIC
Procedure: as §1, §2

MTT viability, MEWO = type: cell-based, human; details: human, MEWO malignant melanoma cells, 1000 µM (IC50 exceeded 1000 µM), read-out: viability ± standard deviation at 1000 µM
Procedure: (§3) Cell lines and in vitro culture conditions: The human promyelocytic leukaemia cell line HL-60 was obtained from the Centre of Molecular and Macromolecular Biology in Łódź, Poland and was cultured in RPMI 1640 medium with 20% heat-inactivated fetal bovine serum (FBS). To reduce spontaneous differentiation, the cells were never allowed to exceed a concentration of 1.0 × 10^6 cells/mL. The human keratinocyte cell line HaCaT was obtained from Cell Lines Service, Germany (CLS) and cultured in DMEM medium with 10% FBS. Human colorectal adenocarcinoma HT29 and normal epithelial IEC-6 cell lines (from ATCC) were cultured in DMEM medium with 10% FBS. The human skin melanoma cell line MEWO (from CLS) was cultured in DMEM:F12 supplemented with 2 mM L-glutamine and 10% FBS. Human fibroblasts from gingiva isolated from original tissue, HFIB-G, (from Provitro) were cultured in Quantum 333 (from Immunique). The media were supplemented with 100 U/mL penicillin and 100 µg/mL streptomycin; all media components were obtained from Life Technologies. The adherent cell lines used in the studies were seeded on microplates before they exceeded 80% of confluence. Cells were cultured at 37 °C in 5% CO2 air atmosphere/95% air atmosphere.
(§4) Cytotoxic activity: The cells (the density for HL-60 was 0.5 × 10^4 cells/100 µL, otherwise it was 1 × 10^4 cells/100 µL) were plated into each well of 96-well microtiter plates and, after their attachment to the plate surface, treated with 10 µL of the indicated concentrations of compounds for 24 h. Viability was determined by MTT assay following the treatment. MTT (3-[4.5-dimethylthiazol-2-yl]-2.5-diphenyltetrazolium bromide; Sigma, St. Louis, MO, USA) solution was added to each well and incubated for another 4 h. The resulting MTT-formazan product was dissolved by the addition of lysis buffer (20% SDS and 50% DMF). The amount of formazan was determined by measuring absorbance at 570 nm with a Synergy 2 microplate reader (BioTek, Winooski, VT, USA) operated by the Gen5 program. The experiments were conducted three times with five replications. The results are expressed as an optical density ratio of the treatment to control. All data are presented as means ± SD.

MTT viability, HT29 = type: cell-based, human; details: human, HT29 colorectal adenocarcinoma cells, 1000 µM (IC50 exceeded 1000 µM), read-out: viability ± standard deviation at 1000 µM
Procedure: as §3, §4

[7] = test system: Promyelocytic Leukaemia HL-60; experiment: MTT viability, HL-60; type: cell-based, human; details: Homo sapiens, HL-60, 24 h, HL-60, MTT, range 10–1000 µM, read-out: half maximal inhibitory concentration (IC50), interpolated
Procedure: as §3, §4

MTT viability, HFIG = type: cell-based, human; details: human, HFIG (HFIB-G) gingival fibroblasts, 1000 µM (IC50 exceeded 1000 µM), read-out: viability ± standard deviation at 1000 µM
Procedure: as §3, §4

MTT viability, HaCaT = type: cell-based, human; details: human, HaCaT keratinocytes, 1000 µM (IC50 exceeded 1000 µM), read-out: viability ± standard deviation at 1000 µM
Procedure: as §3, §4

MTT viability, IEC6 = type: cell-based; details: rat, IEC-6 small intestine epithelial cells, 1000 µM (IC50 exceeded 1000 µM), read-out: viability ± standard deviation at 1000 µM
Procedure: as §3, §4

Malignant Melanoma MEWO = experiment: MTT viability, MEWO; type: cell-based, human; details: Homo sapiens, 24 h, range 10–1000 µM, read-out: half maximal inhibitory concentration (IC50), interpolated
Procedure: as §3, §4

Fibroblasts HFIG = experiment: MTT viability, HFIG; type: cell-based, human; details: Homo sapiens, Fibroblast, 24 h, range 10–1000 µM, read-out: half maximal inhibitory concentration (IC50), interpolated
Procedure: as §3, §4

Keratinocytes HaCaT = experiment: MTT viability, HaCaT; type: cell-based, human; details: Homo sapiens, 24 h, range 10–1000 µM, read-out: half maximal inhibitory concentration (IC50), interpolated
Procedure: as §3, §4

Row | MIC [1] [µg/mL] | MIC [2] [µg/mL] | MIC [3] [µg/mL] | MIC [4] [µg/mL] | MIC [5] [µg/mL] | MIC [6] [µg/mL] | pIC50 [7] | pIC50 (Malignant Melanoma MEWO) | SMILES | viability at 24 h, 1000 µM (MTT viability, MEWO) [%] | viability at 24 h, 1000 µM (MTT viability, HT29) [%] | viability at 24 h, 1000 µM (MTT viability, HFIG) [%] | viability at 24 h, 1000 µM (MTT viability, HaCaT) [%] | viability at 24 h, 1000 µM (MTT viability, IEC6) [%] | pIC50 (Fibroblasts HFIG) | pIC50 (Keratinocytes HaCaT)
1 | 34 | 16 | 14 | 16 | 18 | 12 | 3.46 |  | CC(=O)OCC=C(C)C(C)CC(C)CCC=C(C)C (stereo not drawn) [Compound 35, 3,4,6,10-Tetramethylundec-2,9-dien-1-yl acetate] | 112 | 83 | 87 | 102 | 71 |  | 
2 | 32 | 20 | 18 | 18 | 20 | 18 | 3.51 |  | CC(=O)OCC=C(C)CCC(C)CCC=C(C)C (stereo not drawn) [Compound 34, 3,6,10-Trimethylundeca-2,9-dien-1-yl acetate] | 98 | 98 | 99 | 110 | 79 |  | 
3 | 16 (≈ 33.5 µM) | > 64 | 32 (≈ 67 µM) | 4 (≈ 8.38 µM) | 32 (≈ 67 µM) | 32 (≈ 67 µM) |  |  | CNC(C)C1CCC(N)C(OC2C(N)CC(N)C(OC3OCC(C)(O)C(NC)C3O)C2O)O1 (stereo not drawn) [Gentamicin, reference compound] |  |  |  |  |  |  | 
4 | 28 | 20 | 20 | 28 | 22 | 22 | 3.92 | 3.13 | CC(=O)OCC=C(C)CCC=C(C)CCC=C(C)C [Farnesyl acetate (5), farnesyl acetate, reference compound] |  | 105 | 98 | 102 | 78 |  | 

More lines, now with the values behind:

Row | SMILES | MIC [1] [µg/mL] | MIC [2] [µg/mL] | MIC [3] [µg/mL] | MIC [4] [µg/mL] | MIC [5] [µg/mL] | MIC [6] [µg/mL] | pIC50 [7] | pIC50 (Malignant Melanoma MEWO) | viability at 24 h, 1000 µM (MTT viability, MEWO) [%] | viability at 24 h, 1000 µM (MTT viability, HT29) [%] | viability at 24 h, 1000 µM (MTT viability, HFIG) [%] | viability at 24 h, 1000 µM (MTT viability, HaCaT) [%] | viability at 24 h, 1000 µM (MTT viability, IEC6) [%] | pIC50 (Fibroblasts HFIG) | pIC50 (Keratinocytes HaCaT)
5 | CC(C)=CCCC(C)CC(C)C(C)=CCO (stereo not drawn) [Compound 29, 3,4,6,10-Tetramethylundeca-2,9-dien-1-ol] | 28 (≈ 125 µM) | 22 (≈ 98 µM) | 18 (≈ 80.2 µM) | 38 (≈ 169 µM) | 36 (≈ 160 µM) | 32 (≈ 143 µM) | 3.60 | 3.23 |  | 82 |  |  | 103 | 3.12 | 3.02
6 | O=C(O)c1cn(C2CC2)c2cc(N3CCNCC3)c(F)cc2c1=O [Ciprofloxacin, reference compound] | 8 (≈ 24.1 µM) | 2 (≈ 6.04 µM) | 8 (≈ 24.1 µM) | 4 (≈ 12.1 µM) | 2 (≈ 6.04 µM) | 4 (≈ 12.1 µM) |  |  |  |  |  |  |  |  | 
7 | CC(=O)OCC=C(C)CC(C)CCC=C(C)C (stereo not drawn) [Compound 33, 3,5,9-Trimethyldeca-2,8-dien-1-yl acetate] | 26 | 18 | 16 | 26 | 18 | 22 | 3.40 |  | 103 | 110 | 100 | 101 | 95 |  | 
8 | CC(=O)OCC=C(C)CCC=C(C)C(C)CCC=C(C)C (stereo not drawn) [Compound 30, 3,7,8,12-Tetramethyltrideca-2,6,11-trien-1-yl acetate] | 30 | 24 | 18 | 30 | 24 | 24 | 3.54 | 3.07 |  | 96 | 105 |  | 86 |  | 3.05
9 | CC(=O)OC/C=C(\C)CCC=CC(C)CCC=C(C)C (stereo not drawn) [Compound 31, (E)-3,8,12-Trimethyltrideca-2,6,11-trien-1-yl acetate] | 24 | 20 | 20 | 26 | 22 | 18 | 3.46 | 3.03 |  | 107 |  | 98 | 94 | 3.07 | 
